Data published in patent US9586914B2, “Modulators of C3a receptors” (THE UNIVERSITY OF QUEENSLAND, priority 2011, dated 2017).
Read-outs that look alike come from different tables or passages of the source. Values belong to the compound of their own block, whether it stands above or below them.

What was measured:
[1] = target: T1, C3a receptor (C3aR) (Homo sapiens, UniProt Q16581); experiment: Competitive binding with [^125I]-C3a in HMDM; conditions: for remaining activity at 20 µM: 1 h, read-out: %[^125I]-C3a binding
T1 construct: peripheral blood mononuclear cells were isolated from buffy coat (obtained from Australian Red Cross Blood Service, Kelvin Grove); endogenous in cells; host or cells: primary human monocyte-derived macrophages (HMDM) differentiated from CD14+ monocytes of donor buffy coat
T1 sequence (Q16581 1-482): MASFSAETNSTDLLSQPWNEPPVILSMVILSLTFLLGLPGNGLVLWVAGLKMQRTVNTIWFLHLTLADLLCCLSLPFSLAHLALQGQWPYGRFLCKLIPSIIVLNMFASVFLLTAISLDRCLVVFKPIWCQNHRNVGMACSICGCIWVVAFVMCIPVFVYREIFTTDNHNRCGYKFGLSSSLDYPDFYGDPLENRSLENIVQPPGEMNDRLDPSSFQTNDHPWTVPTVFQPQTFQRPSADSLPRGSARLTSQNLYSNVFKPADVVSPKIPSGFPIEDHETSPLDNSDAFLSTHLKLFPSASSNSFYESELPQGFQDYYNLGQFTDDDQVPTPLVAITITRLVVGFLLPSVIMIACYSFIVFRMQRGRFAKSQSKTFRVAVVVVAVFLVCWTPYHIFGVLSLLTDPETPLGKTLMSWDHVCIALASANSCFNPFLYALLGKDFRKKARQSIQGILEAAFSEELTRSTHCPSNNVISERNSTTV
Text: For HMDM, peripheral blood mononuclear cells were isolated from buffy coat (obtained from Australian Red Cross Blood Service, Kelvin Grove) using Ficoll-paque density centrifugation (GE Healthcare Bio-Science, Uppsala, Sweden). CD^14+ monocytes were positively selected using CD^14+ MACS magnetic beads (Miltenyi Biotech, Auburn, Calif., USA). […] Cells were harvested by gentle scraping in saline solution and replated for use on Day 7. […] Unbound radioactivity was removed by filtration through glass microfiber filters GF/B (Whatman Iner. […] The filter was washed 3 times with cold buffer (50 mM Tris-HCl) pH 7.4. […] The −log IC50 for each compound was calculated for separate experiments and express as an arithmetic mean standard error (SE). IC50 values were expressed as a geometric mean.

[2] = target: T2, C3aR (Homo sapiens, UniProt Q16581); experiment: Calcium mobilization assay in HMDM (agonist/antagonist activity); assay type: cell-based; conditions: for Emax at 10 µM: read-out: % agonist
T2 construct: peripheral blood mononuclear cells were isolated from buffy coat (obtained from Australian Red Cross Blood Service, Kelvin Grove); endogenous in cells; host or cells: primary human monocyte-derived macrophages (HMDM) differentiated from CD14+ monocytes of donor buffy coat
T2 sequence (Q16581 1-482): T1 sequence (Q16581 1-482)
Experimental: Harvested HMDM cells were washed with 0.9% NaCl solution by centrifugation at 2500 rpm for 5 min, followed by resuspension of the cell pellet with complete media. Cells were seeded at 5×10^4 cells/well in a 96-well black-wall, clear bottom plate (DKSH, Zurich), and left overnight to adhere at 37° C. On the day of the experiment, supernatant was removed and cells were incubated in dye loading buffer (Hank's Balanced Salt Solution (HBSS) with 4 μM Fluo-3, 25 μL pluronic acid, 1% fetal bovine serum (FBS) and 2.5 mM probenecid) for one hour at 37° C. Cells were then washed twice with HBSS and transferred to a Fluorostar spectrofluorimeter (BMG, Durham N.C.) for oxazole compound injection and fluorescence measurements.
Various compounds were examined in the calcium mobilization assay for agonist or antagonist activity compared to hC3a and to the known antagonist SB290157.
HMDMs were seeded into black-wall, clear bottom 96-well plates (Corning Incorporated, NY) at 50,000 cells/well and left to incubate at 37° C. with 5% CO2 overnight for cells to adhere. The medium was removed before being washed with the assay buffer (1×HBSS, 20 mM HEPES, 2.5 mM probenecid, pH 7.4). To each well was added 100 μL of dye-loading buffer made up of 12 mL calcium buffer, 1% FBS, 25 μL of Fluo-3 dye (final concentration of 4 μM) and 25 μL of 20% pluronic acid. The plate was covered in aluminium foil to protect the light-sensitive dye and left to incubate at 37° C. for 1 h. The dye-loading buffer was removed before the cells were washed with the assay buffer to remove excess loading dye. To each well was added 50 μL of fresh assay buffer before the plate was loaded into a FLIPR (Fluorescent Imaging Plate Reader) that can inject treatments and measure any calcium release. To generate agonist plots, calcium release was monitored for 300 seconds. To generate antagonist plots, calcium release was recorded for 900 seconds, which at the same time would allow incubation for the antagonists. After the initial incubation period, an agonist would be added and the response was recorded for 300 seconds. Intracellular release of calcium was recorded via fluorescence measurements at wavelength of 485 nm for excitation and 520 nm for emission.

[3] = Table 6, competitive binding with [^125I]-C3a, HMDM, read-out: IC50 (converted)
[4] = Table 9, Ca^2+ mobilization, HMDM, read-out: EC50
[5] = Table 8, HMDM, read-out: Receptor Binding Affinity ^125I IC50
[6] = Table 10, HMDM, read-out: Antagonist Activity Ca^2+ IC50
[7] = Table 13, calcium release from HMDM, read-out: Antagonist Activity IC50
[8] = Table 6, competitive binding with [^125I]-C3a, HMDM
[9] = Table 9, Ca^2+ mobilization, HMDM

IC50 [1, 3]: 38 nM
EC50 [2, 4]: 120 nM
SMILES: Cc1[nH]c([C@H](CC(C)C)NC(=O)OC(C)(C)C)nc1C(=O)N[C@@H](CCCNC(=N)N)C(=O)O [Compound 80, Boc-Leucine-imidazole-Arginine-OH]

IC50 [1, 5]: 740 nM
-Log IC50 ([1]; Table 14, binding affinity for C3aR on HMDM): 8.0
Agonist Activity (in words) ([2]; Table 10, HMDM): partial agonist
IC50 [2, 6]: 30 nM
SMILES: Cc1oc(C(c2ccccc2)c2ccccc2)nc1C(=O)N[C@@H](CCCNC(=N)N)C(=O)O [Compound 61, 2-Diphenylmethyl-5-methyl oxazole-4-carboxyl-Arg-OH]

IC50 [1, 3]: 375 nM
IC50 [2, 7]: 200 nM
SMILES: Cc1nc([C@H](CC(C)C)NC(=O)OC(C)(C)C)sc1C(=O)N[C@@H](CCCNC(=N)N)C(=O)O [Compound 82, Boc-Leucine-thiazole-Arginine-OH]

IC50 [1, 5]: 2580 nM
IC50 [2, 6]: 24000 nM
SMILES: N=C(N)NCCC[C@H](NC(=O)c1nnc(C(c2ccccc2)c2ccccc2)o1)C(=O)O [Compound 69, 2-Diphenylmethyl-1-oxa-3,4-diazole-5-carboxyl-Arginine-OH]

IC50 [1, 5]: 123 nM
IC50 [2, 6]: 2000 nM
SMILES: N=C(N)NCCC[C@H](NC(=O)c1oc(C(c2ccccc2)c2ccccc2)nc1-c1ccccc1)C(=O)O [Compound 66, 2-Diphenylmethyl-4-phenyl oxazole-5-carboxyl-Arg-OH]

IC50 [1, 3]: 37 nM
IC50 ([1]; Table 6, competitive binding with [^125I]-C3a, HMDM, read-out: pIC50 ± SEM (converted)): 37.2 nM
IC50 [1, 5]: 1 nM
IC50 ([1]; Table 12, read-out: Receptor Binding Affinity pIC50 ± SE (converted)): 37.2 nM
EC50 [2, 4]: 6.6 nM
Agonist Activity (in words) ([2]; Table 10, HMDM): partial agonist
IC50 [2, 6]: 20 nM
EC50 ([2]; Table 12, read-out: Apparent Agonist Activity EC50): 6.6 nM
SMILES: N=C(N)NCCC[C@H](NC(=O)c1coc(C(c2ccccc2)c2ccccc2)n1)C(=O)O [Compound 56, 2-Diphenylmethyl-oxazole-4-carboxyl-Arg-OH]

IC50 [1, 3]: 888 nM
IC50 [2, 7]: 2000 nM
SMILES: N#CN=C(N)NCCC[C@H](NC(=O)c1ccc(C(c2ccccc2)c2ccccc2)s1)C(=O)NS(=O)(=O)c1ccccc1 [Compound 96, (S)-5-benzhydryl-N-(5-(2-cyanoguanidino)-1-oxo-1-(phenylsulfonamido)pentan-2-yl)thiophene-2-carboxamide]

IC50 [1, 5]: 140 nM
IC50 ([1]; Table 14, binding affinity for C3aR on HMDM, read-out: -Log IC50 (converted)): 63.1 nM
EC50 ([2]; Table 10, HMDM, read-out: Agonist Activity EC50): > 100000 nM
IC50 [2, 6]: 70 nM
SMILES: N=C(N)NCCC[C@H](NC(=O)c1ccc(C(c2ccccc2)c2ccccc2)s1)C(=O)O [Compound 60, 5-Diphenylmethyl-thiophene-2-carboxyl-Arg-OH]

IC50 [1, 3]: 30 nM
IC50 [2, 7]: 2000 nM
SMILES: CC(C)C[C@H](NC(=O)OC(C)(C)C)c1nc(C(=O)N[C@@H](CCCNC(=N)N)C(=O)NS(C)(=O)=O)co1 [Compound 93, tert-butyl ((S)-1-(4-(((S)-5-guanidino-1-(methylsulfonamido)-1-oxopentan-2-yl)carbamoyl)oxazol-2-yl)-3-methylbutyl)carbamate]

IC50 [1, 5]: 447 nM
IC50 [2, 6]: 1200 nM
SMILES: N=C(N)NCCC[C@H](NC(=O)c1noc(C(c2ccccc2)c2ccccc2)n1)C(=O)O [Compound 68, 5-Diphenylmethyl-1-oxa-2,4-diazole-3-carboxyl-Arginine-OH]

Continued, compound first:

SMILES: CC(C)(C)OC(=O)N[C@@H](CC1CCCCC1)c1nc(C(=O)N[C@@H](CCCNC(=N)N)C(=O)O)co1 [Compound 5, Boc-L-Cyclohexylalanine-Oxazole-Arg]
IC50 [1, 3]: 82 nM
EC50 [2, 4]: 135 nM

SMILES: COc1ccccc1CC(=O)N[C@@H](CC(C)C)c1nc(C(=O)N[C@@H](CCCNC(=N)N)C(=O)O)c(C)o1 [Compound 37, 2-Methoxy-phenylacetic acid-Leucine-5-Methyl-Oxazole-Arginine]
remaining activity at 20 µM [1]: 43%
Emax at 10 µM [2]: 81%

SMILES: CC(C)C[C@H](NC(=O)OC(C)(C)C)c1nc(C(=O)N[C@@H](CCCN/C(N)=N\C#N)C(=O)O)co1 [Compound 90, (S)-2-(2-((S)-1-((tert-butoxycarbonyl)amino)-3-methylbutyl)oxazole-4-carboxamido)-5-((Z)-2-cyanoguanidino)pentanoic acid]
IC50 [1, 3]: 41 nM
EC50 [2, 4]: 250 nM

SMILES: Cc1oc([C@H](CC(C)C)NC(=O)NCc2ccccc2)nc1C(=O)N[C@@H](CCCNC(=N)N)C(=O)O [Compound 46, Benzylisocyanate-Leucine-5-Methyl-Oxazole-Arginine]
remaining activity at 20 µM [1]: 61%
Emax at 10 µM [2]: 50%

SMILES: CC[C@H](C)[C@H](NC(=O)c1cccc(OC)c1OC)c1nc(C(=O)N[C@@H](CCCNC(=N)N)C(=O)O)co1 [Compound 22, 2,3-dimethoxybenzoic acid-isoleucine-oxazole-arginine-OH]
pIC50 ± SEM [1, 8]: 6.15 ± 0.14
IC50 [1, 3]: 712 nM
EC50 (nM) [2, 9]: ∞
pEC50 ± SEM [2, 9]: ∞

SMILES: COc1ccc(CC(=O)N[C@@H](CC(C)C)c2nc(C(=O)N[C@@H](CCCNC(=N)N)C(=O)O)c(C)o2)cc1 [Compound 39, 4-Methoxy-phenylacetic acid-Leucine-5-Methyl-Oxazole-Arginine]
remaining activity at 20 µM [1]: 40%
Emax at 10 µM [2]: 26%

SMILES: CC(C)C[C@H](NC(=O)OC(C)(C)C)c1nc(C(=O)N[C@@H](CCONC(=N)N)C(=O)O)co1 [Compound 91, (S)-2-(2-((S)-1-((tert-butoxycarbonyl)amino)-3-methylbutyl)oxazole-4-carboxamido)-4-(guanidinooxy)butanoic acid]
IC50 [1, 3]: 93 nM
EC50 [2, 4]: 370 nM

SMILES: CC[C@H](C)[C@H](NC(=O)C(c1ccccc1)c1ccccc1)c1nc(C(=O)N[C@@H](CCCNC(=N)N)C(=O)O)co1 [Compound 7, Diphenyl Acetic Acid Isoleucine Oxazole Arginine]
pIC50 ± SEM [1, 8]: 6.86 ± 0.08
IC50 [1, 3]: 137 nM
pEC50 ± SEM [2, 9]: 5.25 ± 0.31
EC50 [2, 4]: 5600 nM

SMILES: CC(C)C[C@H](NC(=O)Cc1ccc(F)cc1)c1nc(C(=O)N[C@@H](CCCNC(=N)N)C(=O)O)co1 [Compound 24, 2-(4-fluorophenyl)acetic acid-Leucine-Oxazole-Arginine-OH]
pIC50 ± SEM [1, 8]: 6.99 ± 0.10
IC50 [1, 3]: 102 nM
pEC50 ± SEM [2, 9]: 6.28 ± 0.16
EC50 [2, 4]: 527 nM

SMILES: CC[C@H](C)[C@H](NC(=O)c1ccc(OC)cc1OC)c1nc(C(=O)N[C@@H](CCCNC(=N)N)C(=O)O)co1 [Compound 23, 2,4-Dimethoxybenzoic acid-isoleucine-oxazole-arginine-OH]
pIC50 ± SEM [1, 8]: 6.06 ± 0.13
IC50 [1, 3]: 872 nM
pEC50 ± SEM [2, 9]: 6.07 ± 0.13
EC50 [2, 4]: 849 nM

SMILES: CC[C@H](C)[C@H](NC(=O)Cc1c[nH]c2ccccc12)c1nc(C(=O)N[C@@H](CCCNC(=N)N)C(=O)O)co1 [Compound 9, 2-(1H-indol-3-yl)acetic acid-Isoleucine-Oxazole-Arginine-OH]
pIC50 ± SEM [1, 8]: 6.82 ± 0.10
IC50 [1, 3]: 152 nM
pEC50 ± SEM [2, 9]: 7.14 ± 0.19
EC50 [2, 4]: 73 nM

SMILES: Cc1oc([C@H](CC(C)C)NC(=O)c2cncc(Br)c2)nc1C(=O)N[C@@H](CCCNC(=N)N)C(=O)O [Compound 48, 5-Bromonicotinic acid-Leucine-5-Methyl-Oxazole-Arginine]
remaining activity at 20 µM [1]: 32%
Emax at 10 µM [2]: 68%
